Results from ChEMBL document CHEMBL3991601, “The target landscape of clinical kinase drugs” (Science, 2017).
Active and inactive are the calls of the source. Rule as the data show it, for most assays here: actives have a measured Kd and inactives only a lower limit.

Key:
[1] = target: TRAF2 and NCK-interacting protein kinase (Homo sapiens, UniProt Q9UKE5)
[2] = target: Eukaryotic translation initiation factor 2-alpha kinase 1 (Homo sapiens, UniProt Q9BQI3)
[3] = target: ATP-dependent RNA helicase DDX3X (Homo sapiens, UniProt O00571)
[4] = target: T1, EKC/KEOPS complex subunit TP53RK (Homo sapiens, UniProt Q96S44)
T1 sequence (Q96S44 whole entry): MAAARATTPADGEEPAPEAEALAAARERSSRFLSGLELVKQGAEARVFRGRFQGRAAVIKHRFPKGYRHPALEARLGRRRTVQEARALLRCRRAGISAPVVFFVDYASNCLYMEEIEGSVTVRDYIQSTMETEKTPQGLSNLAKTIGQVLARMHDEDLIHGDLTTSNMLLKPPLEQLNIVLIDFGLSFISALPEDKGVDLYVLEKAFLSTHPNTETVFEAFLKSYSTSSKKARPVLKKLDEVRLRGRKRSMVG

[5] = target: RAC-gamma serine/threonine-protein kinase (Homo sapiens, UniProt Q9Y243)
[6] = target: T2, Dual specificity mitogen-activated protein kinase kinase 5 (Homo sapiens, UniProt Q13163)
T2 sequence (Q13163 whole entry): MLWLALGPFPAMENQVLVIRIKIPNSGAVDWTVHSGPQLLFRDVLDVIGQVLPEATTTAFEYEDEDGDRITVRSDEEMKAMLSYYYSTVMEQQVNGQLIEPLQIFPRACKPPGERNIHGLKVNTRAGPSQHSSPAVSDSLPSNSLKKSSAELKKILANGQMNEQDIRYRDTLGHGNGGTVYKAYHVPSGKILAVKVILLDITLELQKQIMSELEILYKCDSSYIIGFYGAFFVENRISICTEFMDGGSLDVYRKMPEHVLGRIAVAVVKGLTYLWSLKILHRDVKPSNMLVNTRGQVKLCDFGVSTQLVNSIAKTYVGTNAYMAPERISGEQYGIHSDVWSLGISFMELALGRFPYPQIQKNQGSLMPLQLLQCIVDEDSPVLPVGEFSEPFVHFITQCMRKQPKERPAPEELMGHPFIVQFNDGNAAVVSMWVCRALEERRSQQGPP

[7] = target: Ribosomal protein S6 kinase alpha-3 (Homo sapiens, UniProt P51812)
[8] = target: T3, ATP-dependent 6-phosphofructokinase, platelet type (Homo sapiens, UniProt Q01813)
T3 sequence (Q01813 whole entry): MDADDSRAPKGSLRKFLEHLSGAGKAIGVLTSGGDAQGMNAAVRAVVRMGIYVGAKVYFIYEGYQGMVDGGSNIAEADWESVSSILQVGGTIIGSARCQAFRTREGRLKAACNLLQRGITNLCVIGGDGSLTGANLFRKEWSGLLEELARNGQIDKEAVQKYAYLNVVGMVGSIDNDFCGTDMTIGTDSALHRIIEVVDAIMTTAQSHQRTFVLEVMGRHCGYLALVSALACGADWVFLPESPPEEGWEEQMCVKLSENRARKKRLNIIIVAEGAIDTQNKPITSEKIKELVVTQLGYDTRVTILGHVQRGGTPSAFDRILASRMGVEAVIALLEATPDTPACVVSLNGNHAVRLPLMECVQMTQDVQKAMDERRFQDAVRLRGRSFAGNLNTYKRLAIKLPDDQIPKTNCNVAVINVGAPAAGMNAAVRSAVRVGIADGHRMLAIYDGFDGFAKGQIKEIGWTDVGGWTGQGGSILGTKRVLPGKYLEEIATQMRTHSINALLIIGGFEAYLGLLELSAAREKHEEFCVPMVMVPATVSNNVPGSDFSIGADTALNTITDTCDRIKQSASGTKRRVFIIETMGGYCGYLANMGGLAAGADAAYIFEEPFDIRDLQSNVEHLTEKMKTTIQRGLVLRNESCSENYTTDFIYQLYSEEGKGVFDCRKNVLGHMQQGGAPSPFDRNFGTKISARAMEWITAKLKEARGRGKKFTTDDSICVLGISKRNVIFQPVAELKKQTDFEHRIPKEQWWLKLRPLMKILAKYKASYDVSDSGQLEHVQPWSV

[9] = target: Mitogen-activated protein kinase kinase kinase kinase 1 (Homo sapiens, UniProt Q92918)
[10] = target: T4, Serine/threonine-protein kinase Nek9 (Homo sapiens, UniProt Q8TD19)
T4 sequence (Q8TD19 whole entry): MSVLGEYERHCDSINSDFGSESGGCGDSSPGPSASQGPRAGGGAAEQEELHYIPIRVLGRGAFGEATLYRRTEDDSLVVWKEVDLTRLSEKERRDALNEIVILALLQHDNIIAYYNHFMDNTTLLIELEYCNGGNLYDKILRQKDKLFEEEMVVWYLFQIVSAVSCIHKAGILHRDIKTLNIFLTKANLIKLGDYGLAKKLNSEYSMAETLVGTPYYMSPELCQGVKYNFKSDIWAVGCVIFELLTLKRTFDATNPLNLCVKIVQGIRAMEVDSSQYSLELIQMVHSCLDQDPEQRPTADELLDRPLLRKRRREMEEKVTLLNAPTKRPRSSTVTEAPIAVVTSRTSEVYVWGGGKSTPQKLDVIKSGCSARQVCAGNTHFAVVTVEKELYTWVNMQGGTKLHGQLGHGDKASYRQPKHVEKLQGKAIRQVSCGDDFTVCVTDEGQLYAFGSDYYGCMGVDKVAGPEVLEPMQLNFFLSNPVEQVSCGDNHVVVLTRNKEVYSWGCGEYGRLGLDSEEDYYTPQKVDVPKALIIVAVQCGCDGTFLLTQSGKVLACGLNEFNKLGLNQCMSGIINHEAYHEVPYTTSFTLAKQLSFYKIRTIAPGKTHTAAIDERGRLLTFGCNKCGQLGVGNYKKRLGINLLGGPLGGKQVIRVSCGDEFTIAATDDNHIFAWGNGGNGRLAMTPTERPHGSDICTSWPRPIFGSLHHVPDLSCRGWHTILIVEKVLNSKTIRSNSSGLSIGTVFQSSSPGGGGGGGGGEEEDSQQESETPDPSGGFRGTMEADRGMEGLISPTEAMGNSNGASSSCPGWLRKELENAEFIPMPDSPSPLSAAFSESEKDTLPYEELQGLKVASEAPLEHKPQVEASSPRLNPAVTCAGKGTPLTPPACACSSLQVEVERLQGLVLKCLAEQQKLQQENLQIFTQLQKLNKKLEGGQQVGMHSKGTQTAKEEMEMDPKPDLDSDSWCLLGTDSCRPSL

[11] = target: Serine/threonine-protein kinase N1 (Homo sapiens, UniProt Q16512)
[12] = target: Cyclin-dependent kinase 7 (Homo sapiens, UniProt P50613)
Also: in the data inactive means no Kd found up to 30 µM.

RAC-gamma serine/threonine-protein kinase, sequence (Q9Y243 whole entry): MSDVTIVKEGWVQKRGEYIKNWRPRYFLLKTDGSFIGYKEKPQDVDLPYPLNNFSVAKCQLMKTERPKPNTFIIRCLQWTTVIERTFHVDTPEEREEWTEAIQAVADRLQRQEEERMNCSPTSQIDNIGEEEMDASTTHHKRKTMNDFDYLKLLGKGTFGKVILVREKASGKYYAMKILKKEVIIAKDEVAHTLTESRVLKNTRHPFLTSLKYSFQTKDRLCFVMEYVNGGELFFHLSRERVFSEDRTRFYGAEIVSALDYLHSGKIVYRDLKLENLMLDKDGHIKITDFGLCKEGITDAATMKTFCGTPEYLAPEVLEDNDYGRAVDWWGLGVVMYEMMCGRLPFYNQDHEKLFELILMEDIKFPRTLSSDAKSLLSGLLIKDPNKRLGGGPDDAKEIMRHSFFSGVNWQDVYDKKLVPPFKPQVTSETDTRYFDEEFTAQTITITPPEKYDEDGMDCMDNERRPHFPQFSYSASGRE
Ribosomal protein S6 kinase alpha-3, sequence (P51812 whole entry): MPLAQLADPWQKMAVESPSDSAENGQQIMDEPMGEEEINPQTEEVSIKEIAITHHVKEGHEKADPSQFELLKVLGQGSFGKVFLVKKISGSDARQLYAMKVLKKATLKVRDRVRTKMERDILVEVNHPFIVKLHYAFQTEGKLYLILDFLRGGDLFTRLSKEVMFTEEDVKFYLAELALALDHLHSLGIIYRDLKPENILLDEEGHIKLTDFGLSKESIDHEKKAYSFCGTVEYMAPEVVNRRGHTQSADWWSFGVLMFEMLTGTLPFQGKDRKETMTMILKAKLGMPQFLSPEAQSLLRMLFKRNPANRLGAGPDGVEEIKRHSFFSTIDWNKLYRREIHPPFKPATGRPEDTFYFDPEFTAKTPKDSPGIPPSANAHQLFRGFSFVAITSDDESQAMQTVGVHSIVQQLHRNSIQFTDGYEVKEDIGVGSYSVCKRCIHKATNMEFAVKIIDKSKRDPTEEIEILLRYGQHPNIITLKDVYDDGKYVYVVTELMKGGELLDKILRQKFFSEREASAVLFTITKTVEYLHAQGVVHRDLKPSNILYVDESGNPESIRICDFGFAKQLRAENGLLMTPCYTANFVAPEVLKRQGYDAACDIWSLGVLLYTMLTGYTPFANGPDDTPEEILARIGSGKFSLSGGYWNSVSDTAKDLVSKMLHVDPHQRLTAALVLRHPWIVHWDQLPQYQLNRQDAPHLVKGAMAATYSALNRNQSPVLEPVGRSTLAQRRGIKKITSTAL
Mitogen-activated protein kinase kinase kinase kinase 1, sequence (Q92918 whole entry): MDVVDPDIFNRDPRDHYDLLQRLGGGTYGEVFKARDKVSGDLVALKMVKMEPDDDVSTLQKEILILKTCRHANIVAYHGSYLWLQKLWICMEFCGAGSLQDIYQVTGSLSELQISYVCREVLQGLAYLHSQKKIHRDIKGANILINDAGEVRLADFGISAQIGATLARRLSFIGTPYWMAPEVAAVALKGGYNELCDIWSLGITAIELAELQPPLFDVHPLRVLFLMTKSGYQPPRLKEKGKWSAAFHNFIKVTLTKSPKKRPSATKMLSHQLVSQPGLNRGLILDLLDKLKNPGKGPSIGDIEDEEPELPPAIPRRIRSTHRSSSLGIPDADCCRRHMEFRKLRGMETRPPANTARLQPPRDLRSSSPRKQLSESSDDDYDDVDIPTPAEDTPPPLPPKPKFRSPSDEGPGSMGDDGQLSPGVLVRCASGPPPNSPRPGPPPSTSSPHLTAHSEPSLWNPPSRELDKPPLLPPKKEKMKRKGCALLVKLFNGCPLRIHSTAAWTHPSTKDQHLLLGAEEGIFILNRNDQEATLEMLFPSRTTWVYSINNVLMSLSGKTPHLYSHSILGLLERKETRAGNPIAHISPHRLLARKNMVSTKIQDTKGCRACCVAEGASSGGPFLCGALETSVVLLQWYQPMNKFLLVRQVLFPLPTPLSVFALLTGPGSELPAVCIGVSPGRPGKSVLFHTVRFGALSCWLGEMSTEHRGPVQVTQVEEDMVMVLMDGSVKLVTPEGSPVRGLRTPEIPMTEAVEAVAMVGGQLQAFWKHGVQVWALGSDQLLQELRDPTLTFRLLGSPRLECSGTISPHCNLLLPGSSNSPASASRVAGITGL
TRAF2 and NCK-interacting protein kinase, sequence (Q9UKE5 whole entry): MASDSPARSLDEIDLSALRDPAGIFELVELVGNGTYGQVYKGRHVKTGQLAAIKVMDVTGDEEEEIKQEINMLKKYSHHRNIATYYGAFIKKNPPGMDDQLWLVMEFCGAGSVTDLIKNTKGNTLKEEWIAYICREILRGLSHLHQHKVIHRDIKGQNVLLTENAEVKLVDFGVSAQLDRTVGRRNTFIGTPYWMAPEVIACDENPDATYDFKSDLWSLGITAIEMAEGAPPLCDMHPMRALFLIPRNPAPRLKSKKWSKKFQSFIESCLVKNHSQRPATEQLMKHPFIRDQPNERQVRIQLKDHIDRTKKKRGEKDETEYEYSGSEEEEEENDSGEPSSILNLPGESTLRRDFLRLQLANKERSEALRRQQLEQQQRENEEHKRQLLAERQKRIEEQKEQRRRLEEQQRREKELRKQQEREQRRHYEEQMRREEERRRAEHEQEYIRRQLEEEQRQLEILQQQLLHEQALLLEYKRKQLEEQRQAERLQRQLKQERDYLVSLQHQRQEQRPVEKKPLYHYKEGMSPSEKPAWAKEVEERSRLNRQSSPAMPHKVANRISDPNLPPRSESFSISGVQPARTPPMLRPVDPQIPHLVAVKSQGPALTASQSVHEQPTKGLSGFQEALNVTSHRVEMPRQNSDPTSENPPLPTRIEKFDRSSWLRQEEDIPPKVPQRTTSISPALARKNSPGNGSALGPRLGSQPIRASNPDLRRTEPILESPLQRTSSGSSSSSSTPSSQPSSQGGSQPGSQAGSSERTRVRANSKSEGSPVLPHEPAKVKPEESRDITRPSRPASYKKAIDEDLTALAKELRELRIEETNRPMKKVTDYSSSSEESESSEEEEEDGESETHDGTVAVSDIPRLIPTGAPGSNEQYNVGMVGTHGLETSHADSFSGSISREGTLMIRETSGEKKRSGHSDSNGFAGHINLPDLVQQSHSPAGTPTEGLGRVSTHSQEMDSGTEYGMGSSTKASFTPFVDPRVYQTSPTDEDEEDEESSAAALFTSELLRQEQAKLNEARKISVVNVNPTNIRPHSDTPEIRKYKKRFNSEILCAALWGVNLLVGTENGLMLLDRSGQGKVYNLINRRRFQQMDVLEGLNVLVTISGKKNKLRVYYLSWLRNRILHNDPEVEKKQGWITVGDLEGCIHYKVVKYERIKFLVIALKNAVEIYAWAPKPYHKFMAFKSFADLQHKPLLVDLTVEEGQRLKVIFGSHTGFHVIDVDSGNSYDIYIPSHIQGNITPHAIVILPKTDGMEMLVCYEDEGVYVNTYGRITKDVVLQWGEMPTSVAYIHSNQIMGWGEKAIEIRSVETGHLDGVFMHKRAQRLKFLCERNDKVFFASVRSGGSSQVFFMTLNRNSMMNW
Cyclin-dependent kinase 7, sequence (P50613 whole entry): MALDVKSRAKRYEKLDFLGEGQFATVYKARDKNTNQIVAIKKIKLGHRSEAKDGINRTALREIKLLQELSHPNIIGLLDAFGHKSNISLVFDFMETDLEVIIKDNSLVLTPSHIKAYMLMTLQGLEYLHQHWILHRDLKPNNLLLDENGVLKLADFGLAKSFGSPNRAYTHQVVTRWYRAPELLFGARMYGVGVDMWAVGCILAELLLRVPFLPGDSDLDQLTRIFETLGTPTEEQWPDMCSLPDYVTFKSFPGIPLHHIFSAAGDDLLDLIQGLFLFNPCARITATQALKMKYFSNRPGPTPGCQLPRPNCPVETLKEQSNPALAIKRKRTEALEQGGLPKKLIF
Eukaryotic translation initiation factor 2-alpha kinase 1, sequence (Q9BQI3 whole entry): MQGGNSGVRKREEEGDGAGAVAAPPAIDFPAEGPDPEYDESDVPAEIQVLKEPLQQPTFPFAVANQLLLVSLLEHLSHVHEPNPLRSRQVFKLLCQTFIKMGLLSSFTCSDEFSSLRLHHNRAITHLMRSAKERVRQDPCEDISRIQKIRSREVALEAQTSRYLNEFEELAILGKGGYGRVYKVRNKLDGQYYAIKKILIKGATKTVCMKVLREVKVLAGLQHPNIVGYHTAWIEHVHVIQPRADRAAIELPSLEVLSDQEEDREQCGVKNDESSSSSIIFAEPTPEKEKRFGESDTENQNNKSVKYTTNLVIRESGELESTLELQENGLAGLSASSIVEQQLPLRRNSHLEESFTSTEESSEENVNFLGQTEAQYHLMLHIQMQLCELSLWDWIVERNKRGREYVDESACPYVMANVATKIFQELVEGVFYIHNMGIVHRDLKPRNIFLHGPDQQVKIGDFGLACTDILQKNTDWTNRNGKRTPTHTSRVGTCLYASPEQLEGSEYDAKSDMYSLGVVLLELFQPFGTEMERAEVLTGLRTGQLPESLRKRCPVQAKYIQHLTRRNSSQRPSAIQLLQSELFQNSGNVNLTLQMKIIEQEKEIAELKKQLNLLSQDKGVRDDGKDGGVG
ATP-dependent RNA helicase DDX3X, sequence (O00571 whole entry): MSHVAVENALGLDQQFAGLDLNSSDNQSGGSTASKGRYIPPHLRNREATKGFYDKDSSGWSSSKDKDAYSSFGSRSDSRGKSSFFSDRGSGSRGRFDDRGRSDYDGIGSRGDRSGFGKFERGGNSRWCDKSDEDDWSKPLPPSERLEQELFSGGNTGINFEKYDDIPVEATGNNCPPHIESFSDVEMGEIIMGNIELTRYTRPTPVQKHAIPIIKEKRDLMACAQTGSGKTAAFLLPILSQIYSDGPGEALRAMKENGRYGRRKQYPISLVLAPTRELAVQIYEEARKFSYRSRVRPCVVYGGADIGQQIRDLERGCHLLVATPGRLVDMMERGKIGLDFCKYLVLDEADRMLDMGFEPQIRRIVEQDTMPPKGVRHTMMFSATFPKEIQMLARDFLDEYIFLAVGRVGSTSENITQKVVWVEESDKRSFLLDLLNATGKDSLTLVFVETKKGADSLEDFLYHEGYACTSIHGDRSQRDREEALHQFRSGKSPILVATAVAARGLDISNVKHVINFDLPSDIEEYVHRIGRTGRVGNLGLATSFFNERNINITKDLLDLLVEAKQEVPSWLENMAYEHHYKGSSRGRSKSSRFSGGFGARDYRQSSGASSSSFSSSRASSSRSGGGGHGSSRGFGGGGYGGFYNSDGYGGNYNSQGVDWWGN

SMILES | Kd [1] | Kd [2] | Kd [3] | Kd [4] | Kd [5] | Kd [6] | Kd [7] | Kd [8] | Kd [9] | Kd [11] | Kd [12] | Kd [10]
O=S(=O)(c1cccc2c(O)nccc12)N1CCCNCC1 [HYDROXYFASUDIL] | > 30 µM (inactive) | > 30 µM (inactive) | > 30 µM (inactive) | > 30 µM (inactive) | > 30 µM (inactive) | > 30 µM (inactive) | > 30 µM (inactive) | > 30 µM (inactive) | > 30 µM (inactive) | 2.92 µM (active) | > 30 µM (inactive) | > 30 µM (inactive)
COCCN1CCN(Cc2ccc(-c3n[nH]c4c3C(=O)c3c(NC(=O)NN5CCOCC5)cccc3-4)cc2)CC1 [RGB-286638] | > 30 µM (inactive) | 3.8 µM (active) | > 30 µM (inactive) | 1.72 µM (active) | > 30 µM (inactive) | 0.535 µM (active) | > 30 µM (inactive) | > 30 µM (inactive) | > 30 µM (inactive) | > 30 µM (inactive) | 0.154 µM (active) | > 30 µM (inactive)
CC[C@@](C)(Nc1ccnc(-c2c[nH]c3ncccc23)n1)C(=O)NCC(F)(F)F [DECERNOTINIB] | > 30 µM (inactive) | > 30 µM (inactive) | > 30 µM (inactive) | 2.83 µM (active) | > 30 µM (inactive) | > 30 µM (inactive) | > 30 µM (inactive) | > 30 µM (inactive) | > 30 µM (inactive) | 49.8 µM (active) | > 30 µM (inactive) | > 30 µM (inactive)
CCc1cc2c(cc1N1CCC(N3CCOCC3)CC1)C(C)(C)c1[nH]c3cc(C#N)ccc3c1C2=O [ALECTINIB] | > 30 µM (inactive) | > 30 µM (inactive) | > 30 µM (inactive) | > 30 µM (inactive) | > 30 µM (inactive) | > 30 µM (inactive) | > 30 µM (inactive) | > 30 µM (inactive) | > 30 µM (inactive) | > 30 µM (inactive) | > 30 µM (inactive) | > 30 µM (inactive)
c1cc(OCCN2CCCCC2)cc(-c2n[nH]c3ccc(-c4nc[nH]n4)cc23)c1 [CC-401] | 2.34 µM (active) | > 30 µM (inactive) | > 30 µM (inactive) | > 30 µM (inactive) | > 30 µM (inactive) | > 30 µM (inactive) | > 30 µM (inactive) | > 30 µM (inactive) | > 30 µM (inactive) | > 30 µM (inactive) | > 30 µM (inactive) | > 30 µM (inactive)
O=C(NOC[C@H](O)CO)c1ccc(F)c(F)c1Nc1ccc(I)cc1F [MIRDAMETINIB] | > 30 µM (inactive) | > 30 µM (inactive) | > 30 µM (inactive) | > 30 µM (inactive) | > 30 µM (inactive) | 0.808 µM (active) | > 30 µM (inactive) | > 30 µM (inactive) | > 30 µM (inactive) | > 30 µM (inactive) | > 30 µM (inactive) | > 30 µM (inactive)
CNC(=O)c1cccc(-c2ccc3c(N4CCOC[C@@H]4C)nc(N4CCOC[C@@H]4C)nc3n2)c1 [VISTUSERTIB] | > 30 µM (inactive) | > 30 µM (inactive) | > 30 µM (inactive) | > 30 µM (inactive) | > 30 µM (inactive) | > 30 µM (inactive) | > 30 µM (inactive) | 0.983 µM (active) | > 30 µM (inactive) | > 30 µM (inactive) | > 30 µM (inactive) | > 30 µM (inactive)

Continued, in another order:

Kd [1] | Kd [2] | Kd [3] | Kd [4] | Kd [5] | Kd [6] | Kd [7] | Kd [8] | Kd [9] | Kd [11] | Kd [12] | SMILES | Kd [10]
> 30 µM (inactive) | > 30 µM (inactive) | > 30 µM (inactive) | > 30 µM (inactive) | > 30 µM (inactive) | > 30 µM (inactive) | > 30 µM (inactive) | > 30 µM (inactive) | > 30 µM (inactive) | > 30 µM (inactive) | > 30 µM (inactive) | COc1cc(Nc2ncc(F)c(Nc3ccc4c(n3)N(COP(=O)(O)O)C(=O)C(C)(C)O4)n2)cc(OC)c1OC [FOSTAMATINIB] | 0.041 µM (active)
> 30 µM (inactive) | > 30 µM (inactive) | > 30 µM (inactive) | > 30 µM (inactive) | > 30 µM (inactive) | > 30 µM (inactive) | > 30 µM (inactive) | > 30 µM (inactive) | > 30 µM (inactive) | > 30 µM (inactive) | > 30 µM (inactive) | Cc1ccc(C(=O)Nc2ccc(Oc3cc4cnn(C)c4cc3-c3cn[nH]c3)c(F)c2)c(=O)n1-c1ccc(F)cc1 [MERESTINIB] | > 30 µM (inactive)
> 30 µM (inactive) | > 30 µM (inactive) | > 30 µM (inactive) | > 30 µM (inactive) | > 30 µM (inactive) | 2.08 µM (active) | > 30 µM (inactive) | > 30 µM (inactive) | > 30 µM (inactive) | > 30 µM (inactive) | > 30 µM (inactive) | CCOc1ccn(-c2ccc(F)cc2)c(=O)c1C(=O)Nc1ccc(Oc2ccnc(N)c2Cl)c(F)c1 [BMS-777607] | > 30 µM (inactive)
> 30 µM (inactive) | > 30 µM (inactive) | > 30 µM (inactive) | > 30 µM (inactive) | > 30 µM (inactive) | > 30 µM (inactive) | > 30 µM (inactive) | > 30 µM (inactive) | > 30 µM (inactive) | > 30 µM (inactive) | > 30 µM (inactive) | C[C@@H]1COC(Nc2ccc3ncnc(Nc4ccc(OCc5nccs5)c(Cl)c4)c3c2)=N1 [VARLITINIB] | > 30 µM (inactive)
> 30 µM (inactive) | > 30 µM (inactive) | > 30 µM (inactive) | > 30 µM (inactive) | > 30 µM (inactive) | 2.39 µM (active) | > 30 µM (inactive) | > 30 µM (inactive) | > 30 µM (inactive) | > 30 µM (inactive) | > 30 µM (inactive) | COc1cc2nccc(Oc3ccc(NC(=O)C4(C(=O)Nc5ccc(F)cc5)CC4)cc3)c2cc1OC [CABOZANTINIB] | > 30 µM (inactive)
